In ChEMBL document CHEMBL5579843, “Multimechanism biological profiling of tetrahydro-β-carboline analogues as selective HDAC6 inhibitors for the treatment of Alzheimer's disease” (Eur J Med Chem, 2024):
The source made the active and inactive calls. No cut-off for these calls is given here.

Tests used:
PC-12 [1] = test: Neuroprotective activity against H2O2-induced oxidative damage in rat PC-12 cells assessed as inhibition of apoptosis by measuring early apoptotic cells at 10 uM pretreated for 4 hrs followed by H2O2 stimulation and measured after 24 hrs by Annexin V-FITC/PI staining based flow cytometry analysis (reference value: 2.32%); assay type: functional; set-up: scale not given: the % may be the effect or the level left; conditions: time 28 hrs
[2] = Antioxidant activity assessed as DPPH scavenging activity incubated for 0.5 hrs by absorbance based assay; assay type: functional
PC-12 [3] = test: Upregulation of beta-3 tubulin protein expression in rat PC-12 cells measured after 24 hrs by Western blot analysis; assay type: functional, cell-based; conditions: dose 1-10 µM
Histone deacetylase 8 = biological target: T1, Histone deacetylase 8 (Homo sapiens, UniProt Q9BY41); test: Inhibition of HDAC8 (unknown origin)
T1 sequence (Q9BY41 whole entry): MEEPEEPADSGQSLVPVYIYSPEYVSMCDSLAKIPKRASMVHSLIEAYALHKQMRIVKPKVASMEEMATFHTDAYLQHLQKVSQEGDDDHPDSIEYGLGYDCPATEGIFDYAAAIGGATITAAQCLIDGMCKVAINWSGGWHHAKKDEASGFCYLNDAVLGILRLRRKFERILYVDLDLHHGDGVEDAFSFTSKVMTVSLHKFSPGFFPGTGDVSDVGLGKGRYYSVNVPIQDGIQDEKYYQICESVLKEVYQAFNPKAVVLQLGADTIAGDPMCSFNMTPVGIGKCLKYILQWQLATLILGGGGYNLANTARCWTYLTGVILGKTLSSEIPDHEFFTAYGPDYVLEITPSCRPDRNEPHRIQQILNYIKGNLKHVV

PC-12 [4] = test: Neuroprotective activity against H2O2-induced oxidative damage in rat PC-12 cells assessed as increase in Nrf2 protein expression at 10 uM pretreated for 4 hrs followed by H2O2 stimulation and measured after 24 hrs by Western blot analysis; assay type: functional, cell-based; conditions: time 28.0 hrs
PC-12 [5] = test: Induction of neurite outgrowth in rat PC-12 cells assessed as increase in average neuronal length at 1 to 10 uM measured after 48 hrs by light microscopic analysis; assay type: functional, cell-based; conditions: dose 1-10 µM
PC-12 [6] = test: Neuroprotective activity against H2O2-induced oxidative damage in rat PC-12 cells assessed as reduction in ROS level at 10 uM pretreated for 4 hrs followed by H2O2 stimulation and measured after 24 hrs by DCFH-DA staining based fluorescence microscopic analysis; assay type: functional, cell-based; conditions: time 28.0 hrs
PC-12 [7] = test: Induction of neurite outgrowth in rat PC-12 cells assessed as increase in number of neurites per cells at 1 to 10 uM measured after 48 hrs by light microscopic analysis; assay type: functional, cell-based; conditions: dose 1-10 µM
SH-SY5Y [8] = test: Neuroprotective activity against H2O2-induced oxidative damage in human SH-SY5Y cells assessed as increase in cell survival pretreated for 4 hrs followed by 200 uM H2O2 stimulation and measured after 24 hrs by MTT assay; assay type: functional, cell-based; conditions: dose 1-10 µM, time 28.0 hrs
PC-12 [9] = test: Neuroprotective activity against H2O2-induced oxidative damage in rat PC-12 cells assessed as inhibition of apoptosis by measuring dead cells at 10 uM pretreated for 4 hrs followed by H2O2 stimulation and measured after 24 hrs by Annexin V-FITC/PI staining based flow cytometry analysis (reference value: 5.10%); assay type: functional; set-up: scale not given: the % may be the effect or the level left; conditions: time 28 hrs
PC-12 [10] = test: Neuroprotective activity against H2O2-induced oxidative damage in rat PC-12 cells assessed as reduction in intracellular LDH level by measuring residual activity at 1 uM pretreated for 4 hrs followed by H2O2 stimulation and measured after 24 hrs relative to control; assay type: functional; conditions: time 28 hrs
Histone deacetylase 2 = Histone deacetylase 2 (Homo sapiens, UniProt Q92769); test: Inhibition of HDAC2 (unknown origin)
Histone deacetylase 2, sequence (Q92769 whole entry): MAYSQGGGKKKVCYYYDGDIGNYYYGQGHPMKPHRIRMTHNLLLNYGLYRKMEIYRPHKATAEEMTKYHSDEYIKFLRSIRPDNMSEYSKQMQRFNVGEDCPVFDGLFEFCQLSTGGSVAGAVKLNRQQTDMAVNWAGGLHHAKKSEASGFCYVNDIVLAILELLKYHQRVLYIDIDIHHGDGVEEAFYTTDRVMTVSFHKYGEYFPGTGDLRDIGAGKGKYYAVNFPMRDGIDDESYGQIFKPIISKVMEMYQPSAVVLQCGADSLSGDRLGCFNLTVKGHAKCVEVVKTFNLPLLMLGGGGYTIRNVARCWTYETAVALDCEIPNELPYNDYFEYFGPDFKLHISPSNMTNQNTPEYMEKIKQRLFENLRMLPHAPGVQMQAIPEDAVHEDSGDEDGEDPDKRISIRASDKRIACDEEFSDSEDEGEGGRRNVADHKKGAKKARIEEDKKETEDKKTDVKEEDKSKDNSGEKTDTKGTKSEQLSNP

Danio rerio [11] = species on record: Danio rerio; test: Effect on anxiety-like behavior in scopolamine induced zebrafish alzheimer disease model assessed as exploratory behavior in upper part of aquarium by measuring increase in total swimming distance at 1 mg/L pretreated with scopolamine for 30 mins followed by compound addition for 3 mins by novel tank diving test; assay type: functional, organism-based
PC-12 [12] = test: Neuroprotective activity against H2O2-induced oxidative damage in rat PC-12 cells assessed as increase in catalase protein expression at 10 uM pretreated for 4 hrs followed by H2O2 stimulation and measured after 24 hrs by Western blot analysis; assay type: functional, cell-based; conditions: time 28.0 hrs
SH-SY5Y [13] = test: Neuroprotective activity against H2O2-induced oxidative damage in human SH-SY5Y cells assessed as cell survival rate at 10 uM pretreated for 4 hrs followed by 200 uM H2O2 stimulation and measured after 24 hrs by MTT assay relative to control; assay type: functional; conditions: time 28 hrs
Danio rerio [14] = species on record: Danio rerio; test: Cognitive improvement ability in scopolamine induced zebrafish alzheimer disease model assessed as improvement in motor activity by measuring increase in total distance of swimming at 1 mg/L pretreated with scopolamine for 30 mins followed by compound addition for 3 mins by T-maze test; assay type: functional, organism-based
PC-12 [15] = test: Induction of neurite outgrowth in rat PC-12 cells assessed as increase in neuronal protrusions at 10 uM measured after 48 hrs by light microscopic analysis; assay type: functional, cell-based
PC-12 [16] = test: Neuroprotective activity against H2O2-induced oxidative damage in rat PC-12 cells assessed as increase in cell survival pretreated for 4 hrs followed by 800 uM H2O2 stimulation and measured after 24 hrs by MTT assay; assay type: functional, cell-based; conditions: dose 1-10 µM, time 28.0 hrs
PC-12 [17] = test: Neuroprotective activity against H2O2-induced oxidative damage in rat PC-12 cells assessed as increase in Prx II protein expression measured after 24 hrs by Western blot analysis; assay type: functional, cell-based; conditions: dose 1-10 µM
PC-12 [18] = test: Neuroprotective activity against H2O2-induced oxidative damage in rat PC-12 cells assessed as reduction in intracellular LDH level by measuring residual activity at 10 uM pretreated for 4 hrs followed by H2O2 stimulation and measured after 24 hrs relative to control; assay type: functional; conditions: time 28 hrs
PC-12 [19] = test: Neuroprotective activity against H2O2-induced oxidative damage in rat PC-12 cells assessed as cell survival rate at 10 uM pretreated for 4 hrs followed by 800 uM H2O2 stimulation and measured after 24 hrs by MTT assay relative to control; assay type: functional; conditions: time 28 hrs, read-out: Survival
PC-12 [20] = test: Neuroprotective activity against H2O2-induced oxidative damage in rat PC-12 cells assessed as inhibition of apoptosis by measuring decrease in PARP protein expression pretreated for 4 hrs followed by H2O2 stimulation and measured after 24 hrs by Western blot analysis; assay type: functional, cell-based; conditions: dose 1-10 µM, time 28.0 hrs
PC-12 [21] = test: Neuroprotective activity against H2O2-induced oxidative damage in rat PC-12 cells assessed as reduction in intracellular LDH level by measuring residual activity at 5 uM pretreated for 4 hrs followed by H2O2 stimulation and measured after 24 hrs relative to control; assay type: functional; conditions: time 28 hrs
PC-12 [22] = test: Neuroprotective activity against 6-OHDA-induced oxidative damage in rat PC-12 cells assessed as increase in cell survival at 1 to 10 uM pretreated for 4 hrs followed by 500 uM 6-OHDA stimulation and measured after 24 hrs by MTT assay; assay type: functional, cell-based; conditions: dose 1-10 µM, time 28.0 hrs
PC-12 [23] = test: Neuroprotective activity against H2O2-induced oxidative damage in rat PC-12 cells assessed as SOD activity at 10 uM pretreated for 4 hrs followed by H2O2 stimulation and measured after 24 hrs by WST-8 assay; assay type: functional; conditions: time 28 hrs
Danio rerio [24] = species on record: Danio rerio; test: Effect on anxiety-like behavior in scopolamine induced zebrafish alzheimer disease model assessed as exploratory behavior in upper part of aquarium by measuring increase in swimming speed at 1 mg/L pretreated with scopolamine for 30 mins followed by compound addition for 3 mins by novel tank diving test; assay type: functional, organism-based
SH-SY5Y [25] = test: Neuroprotective activity against 6-OHDA-induced oxidative damage in human SH-SY5Y cells assessed as increase in cell survival at 1 to 10 uM pretreated for 4 hrs followed by 100 uM 6-OHDA stimulation and measured after 24 hrs by MTT assay; assay type: functional, cell-based; conditions: dose 1-10 µM, time 28.0 hrs

O=C(NO)c1ccc(CN2CCc3c(n(CC4CC4)c4ccc(F)cc34)C2)cc1
Activity (PC-12 [1]): 4.22%
IC50 [2]: 22.5 µM
Activity (PC-12 [3]): Dose-Dependent Effect
IC50 (Histone deacetylase 8): 1.95 µM
Activity (PC-12 [4]): Active
Activity (PC-12 [5]): Active
Activity (PC-12 [6]): Active
Activity (PC-12 [7]): Active
Activity (SH-SY5Y [8]): Dose-Dependent Effect
Activity (PC-12 [9]): 1.12%
Activity (PC-12 [10]): 74.3%
IC50 (Histone deacetylase 2): 19.3 µM
Activity (Danio rerio [11]): Active
Activity (PC-12 [12]): Active
Activity (SH-SY5Y [13]): 78%
Activity (Danio rerio [14]): Active
Activity (PC-12 [15]): Active
Activity (PC-12 [16]): Dose-Dependent Effect
Activity (PC-12 [17]): Dose-Dependent Effect
Activity (PC-12 [18]): 35.9%
viability at 10 µM (PC-12 [19]): 89.7%
Activity (PC-12 [20]): Dose-Dependent Effect
Activity (PC-12 [21]): 50.2%
Activity (PC-12 [22]): Active
Activity (PC-12 [23]): 17.16 U/mg
Activity (Danio rerio [24]): Active
Activity (SH-SY5Y [25]): Active
